# Results as given in US20040171566A1, “Antisense modulation of p38 mitogen activated protein kinase expression” (priority 1999, published 2004).
# System: ovalbumin (OVA)-induced airway hyperresponsiveness and allergic inflammation
# Assay: Mouse model of allergic inflammation (OVA), aerosol oligonucleotide administration
# Format: in vivo
# Protocol: In the mouse model of allergic inflammation, mice were sensitized and challenged with aerosolized chicken ovalbumin (OVA). Airway responsiveness was assessed by inducing airflow obstruction with a methacholine aerosol using a noninvasive method. This methodology utilized unrestrained conscious mice that are placed into the main chamber of a plthysmograph (Buxco Electronics, Inc., Troy, N.Y.). Pressure differences between this chamber and a reference chamber were used to extrapolate minute volume, breathing frequency and enhanced pause (Penh). Penh is a dimensionless parameter that is a function of total pulmonary airflow in mice (i.e., the sum of the airflow in the upper and lower respiratory tracts) during the respiratory cycle of the animal. The lower the Penh, the greater the airflow. This parameter closely correlates with lung resistance as measured by traditional invasive techniques using ventilated animals (Hamelmann et al., 1997). Dose-response data were plotted as raw Penh values to increasing concentrations of methacholine. This system was used to test the efficacy of an antisense oligonucleotide targeted to mouse p38α (ISIS 101757; SEQ ID NO: 177). Mismatched p38α oligonucleotide (ISIS 101758; SEQ ID NO: 266) was used as a negative control.
# […]. […] AHR was measured 24 hours after OVA challenge.
# Animals were injected with a lethal dose of ketamine, the trachea was exposed and a cannula was inserted and secured by sutures. The lungs were lavaged twice with 0.5 ml aliquots of ice cold PBS with 0.2% FCS. The recovered BAL fluid was centrifuged at 1,000 rpm for 10 min at 4° C., frozen on dry ice and stored at −80° C. until used. Luminex was used to measure cytokine levels in BAL fluid and serum.
# Cytospins of cells recovered from BAL fluid were prepared using a Shandon Cytospin 3 (Shandon Scientific LTD, Cheshire, England). Cell differentials were performed from slides stained with Leukostat (Fisher Scientific, Pittsburgh, Pa.). Total cell counts were quantified by hemocytometer and, together with the percent type by differential, were used to calculate specific cell number.
# Before resection, lungs were inflated with 0.5 ml of 10% phosphate-buffered formalin and fixed overnight at 4° C. The lung samples were washed free of formalin with 1×PBS and subsequently dehydrated through an ethanol series prior to equilibration in xylene and embedded in paraffin. Sections (6μ) were mounted on slides and stained with hematoxylin/eosin, massons trichome and periodic acid-schiff (PAS) reagent. Parasagittal sections were analyzed by bright-field microscopy. Mucus cell content was assessed as the airway epithelium staining with PAS. Relative comparisons of mucus content were made between cohorts of animals by counting the number of PAS-positive airways.
# [1] = sensitized mice, aerosol, compared to the mismatched control
substance,measurement,setting,value
"ISIS 101757: antisense oligonucleotide targeted to mouse p38α, SEQ ID NO 177; 2′-MOE gapmer, all phosphorothioate linkages (antisense AGGTGCTCAGGACTCCATTT; all phosphorothioate, sugars by position and methylation of C not given here; 2'-MOE gapmer)",provocation concentration of methacholine required to achieve doubling of airway reactivity (PC200),"OVA-challenged mice, inhaled",increases
same,methacholine-induced AHR,"OVA-sensitized mice, aerosol, whole body plethysmography",dose-dependently suppressed
same,OVA-induced increases in eosinophils recovered in BAL fluid,aerosol,significantly (P<0.05) reduced
same,OVA-induced increases in total cell counts recovered in BAL fluid,aerosol,significantly (P<0.05) reduced
same,OVA-induced inflammatory cell infiltration into the lungs (H&E stain),"aerosol, histology",markedly inhibited
same,mucus hypersecretion in the airway epithelium (PAS stain),"aerosol, histology",markedly inhibited
same,blood levels of OVA-specific IgE,[1],significantly (P<0.05);lowered
same,blood levels of OVA-specific IgG1,[1],significantly (P<0.05);lowered
same,blood levels of total IgE,[1],significantly (P<0.05);lowered
